The source of these data is article PMC7721897, “Metabolism and pharmacokinetics of a novel polyphenol fatty acid ester phloridzin docosahexaenoate in Balb/c female mice” (Scientific Reports, 2020).

Series [1] has as its system mammary carcinoma cells and mammary epithelial cells. The series can be described thus: Cellular uptake assay, all cell lines together. In kind it is cell-based, human and mouse. To be noted: 72 h, 20 μM. Here is the method: Figure 1 Conjugation of PZ with DHA increases the cellular uptake and stability of PZ and DHA. The cells were treated with 20 μM of PZ, DHA or PZ-DHA and cultured for 72 h at 37 °C. Cells were harvested and washed thoroughly using cold PBS. Cells were lysed in cold acetone containing 0.05 mg/mL quercetin, and cell lysates were collected by centrifugation and analyzed by using UPLC-ESI-MS/MS. (A) mean % cellular uptake of PZ, DHA and PZ-DHA. (B) fold increase in intracellular PZ and DHA when conjugated. ANOVA multiple means statistical comparison method was performed and differences among means were compared using Tukey’s test; *p < 0.05. (MDA-MB-231 p = 0.008; MDA-MB-468 p = 0.01; 4T1 p = 0.02; MCF-7 p = 0.01; MCF-10A p = 0.0005).
Cells were seeded at a density of 3 × 10^5 cells (MDA-MB-231, MDA-MB-468, MCF-7, and MCF-10A) or 1 × 10^5 cells (4T1) /T-75 flask. The cells were cultured overnight to promote cell adhesion. Adherent cells were treated with a sub-cytotoxic concentration (20 μM) of PZ, DHA or PZ-DHA and cultured for 72 h at 37 °C. The supernatant was carefully removed, and cell monolayers were washed with cold PBS. Cells were harvested using TrypLE Express and washed thoroughly with cold PBS. The cell pellet was resuspended in 3 mL of cold acetone containing 0.05 mg/mL quercetin as the internal standard, and incubated overnight at 4 °C. Cell lysates were collected by centrifugation at 14,000×g for 15 min at 4 °C and samples were concentrated by evaporating acetone under a stream of nitrogen gas. Dry pellets were reconstituted in methanol and filtered. The sample was analyzed using a UPLC/ESI/MS system. The percentage cell uptake of the total dose was quantified using standard curves of PZ (R^2 = 0.99), DHA (R^2 = 0.98) or PZ-DHA (R^2 = 0.99) made in methanol.
PZ-DHA and/or PZ-DHA metabolites in malignant/non-malignant epithelial cell lysates, in vitro microsome enzyme reaction mixtures, and mouse serum aliquots were determined using UPLC-ESI–MS/MS instrument (Waters Limited, Mississauga, ON, Canada). All mass spectroscopic analyses were performed using mass scan (full-scan, identification of unknowns) and single ion monitoring (SIM; quantification of PZ, DHA, PZ-DHA, and quercetin) modes of a Waters H-class UPLC separations module coupled with a Micromass Quattro micro API MS/MS system and MassLynx V4.0 control software. An Allure biphenyl column (100 mm × 2.1 mm, 1.8 μm, Restek Pure Chromatography, Bellefonte, PA, USA) and a flow rate of 0.3 mL/min were employed. ESI- mode with a capillary voltage of 3000 V and a nebulizer gas (N2) temperature of 375 °C were used. A volume of 2 µL sample was injected.

Series [2] is described as follows: Serum pharmacokinetics after intraperitoneal injection. In kind it is in vivo, Balb/c female mice. Conditions: 100 mg/kg intraperitoneal; for Cmax: read-out: Maximum serum concentration (Cmax). Here is the method: Figure 4 Intraperitoneal administration of PZ-DHA results in absorption into the systemic circulation of Balb/c female mice. PZ-DHA (100 mg/kg) was administered by intraperitoneal injection to Balb/c female mice. Blood collection was performed and serum was separated. PZ-DHA was identified and quantified using a calibration curve (R^2 = 0.99) generated using a standard series of PZ-DHA concentrations made in mouse serum. PZ-DHA concentration was plotted against time. The elimination rate of PZ-DHA was determined using a semi-log curve of PZ-DHA concentration vs. time curve.
Pharmacokinetic parameters and in vivo generation of PZ-DHA metabolites were studied using Balb/c female mice. Mice were randomly divided into six groups (n = 4/group) and PZ-DHA (100 mg/kg) was administered by intraperitoneal injection. For each mouse, a single blood collection was performed by cardiac puncture at one of six different time points (t = 15, 30, 60, 90, 120, and 240 min). At the end of blood collection, mice were euthanized by cervical dislocation and organs (liver, lungs, kidneys, spleen, and brain) were harvested. Blood samples were allowed to clot by leaving undisturbed at room temperature for 1 h, and serum was separated by centrifuging at 2000×g for 10 min at 4 °C. The serum was carefully removed and stored on ice until further processing. Serum proteins were precipitated by incubating an aliquot of serum with a mixture of acetonitrile:acetone (80:20) containing 0.1 mg/mL quercetin (internal standard) at 4 °C overnight. The supernatant was separated by centrifuging at 14,000×g for 10 min at 4 °C. Excess solvent was evaporated using nitrogen flush and mixed with methanol and filtered. PZ-DHA-metabolites in the filtrate were identified using a UPLC-ESI–MS/MS (Waters Limited, Mississauga, ON, Canada). Organs were homogenized in PBS (1:5 w/v). Supernatants were collected by centrifugation at 14,000 × g for 15 min at 4 °C. Proteins were precipitated by incubating in acetonitrile:acetone (80:20) containing 0.1 mg/mL quercetin (internal standard) at 4 °C overnight. Supernatants were treated as explained above, and PZ-DHA and/or PZ-DHA-metabolites were identified.
A calibration curve (R^2 = 0.99) generated using a standard series of PZ-DHA concentrations prepared in mouse serum (spiked with 0.1 mg/mL quercetin) was used for the quantification of PZ-DHA. The average PZ-DHA concentrations were plotted against time. The maximum serum concentration of serum (Cmax) and the time to reach Cmax (Tmax) were read directly from the graph. The linear trapezoidal method was used to calculate the area under the curve (AUC) from t = 0 to infinity, the biological half-life of PZ-DHA (t1/2), determined using the plotted curve in Graphpad Prism software (version 5; La Jolla, CA, USA). The clearance following IP administration was determined by non-compartmental analysis using the relationship CL/F = D/AUC. The elimination rate constant λ was determined by linear regression of the elimination phase of the semi-log transformed concentration versus time curve. The t1/2 was calculated using the formula 0.693/λ and the volume of distribution Vd/F from the formula Vd/F = CL/(F*λ).

On the set-up of series [3]: method as in PMID 31473253. To be noted: 100 mg/kg body weight via intraperitoneal injections; cited from earlier work.
In series [4] the test system is mammary carcinoma cells, including MDA-MB-231 and 4T1. Also noted: method as in PMID 31473253. Conditions: 20 µM for PZ-DHA; cited from earlier work.
Series [5] deals with mammary carcinoma cells (MDA-MB-231, MDA-MB-468, 4T1, MCF-7) and MCF-10A. Also noted: method as in PMID 27535497. To be noted: cited from earlier work.

Where two headings read alike, the source gives them in different places.

What is called AUC is the area under the concentration-time curve, a measure of exposure. `CC/C=C\C/C=C\C/C=C\C/C=C\C/C=C\C/C=C\CCC(=O)OC[C@H]1O[C@@H](Oc2cc(O)cc(O)c2C(=O)CCc2ccc(O)cc2)[C@H](O)[C@@H](O)[C@@H]1O` [PZ-DHA, phloridzin docosahexaenoate]: in series [1], the “abundance in cells throughout the experimental period” value is given as “stable abundance”. Moreover, in series [1] (all cell lines), the “cellular uptake (as a % of the dose), in words” value is recorded as “significantly higher than that of PZ or DHA”. In addition, in series [2], the “Clearance (CL/F)” value was 1.37 mL/min and the “Volume of distribution (Vd/F)” value came to 56.5 mL. Moreover, in series [2] (serum), the “Biological half-life (T1/2)” value was 28.7 min and the Cmax was 23.4 µM. Further, in series [2] (240 min), the “serum detectability at the last measured time” value is listed as “remained detectable”. Moreover, the Tmax in series [2] (female, Balb/c, mouse, ip, serum, read-out: Time to reach maximum serum concentration (Tmax) (converted)) was 60 min. For the same molecule, the half-life in series [2] (female, Balb/c, mouse, serum, ip, 100 mg/kg, serum, read-out: Biological half-life (T1/2)) amounted to 28 min. Moreover, in series [2] (female, Balb/c, mouse, serum, ip, 100 mg/kg, serum), the Cmax was determined as 23.7 µM. Also, the Vd/F in series [2] (female, Balb/c, mouse, serum, ip, 100 mg/kg, read-out: Volume of distribution (Vd/F)) was 0.057 L. The AUC in series [2] (female, Balb/c, mouse, serum, ip, t = 0 to infinity, read-out: The area under the curve (AUC) (converted)) was 36.6 µM·h. In addition, the k el in series [2] (female, Balb/c, mouse, serum, ip, read-out: Elimination rate (λz) (converted)) is 0.0004 s⁻¹. The concentration at 15 min in series [2] (female, Balb/c, mouse, serum, ip, 15 min, read-out: serum concentration at the 1st measured time point) was determined as 0.9 ± 0.4 µM. In addition, the “liver or kidney toxicity” value in series [3] is “does not show liver or kidney toxicity”. The “migration and invasion of mammary carcinoma cells” value in series [4] is recorded as “significantly inhibits”. The “selective cytotoxicity, malignant versus non-malignant cells” value in series [5] is listed as “selectively kills mammary carcinoma cells”.
